US11352391B2, “Compositions for inducing urinary voiding and defecation” (Dignify Therapeutics, LLC, priority 2017, dated 2022)
Where a SMILES comes first, the peptide text is derived from it.

What was measured:
anesthetized dog = assay: Urine leakage from the bladder in anesthetized dog; assay type: in vivo; settings: IV 3 μg/kg and SC 30 μg/kg, data not shown
Method: Animal preparation: Naïve beagle dogs were fasted for 12-24 hours and received a warm water enema the night prior to, and the morning of, the experiment to clear the rectum and lower colon of feces. The day of the experiment, a 20 gauge IV catheter (Terumo Surflo) was placed in the cephalic vein for anesthetic induction (propofol, 10 mg/kg; IV) and delivery of IV fluids (5-10 ml/kg/hr) and compounds. The sedated dog was intubated with a 5-6 Fr tracheal tube and was maintained on 2-3% isoflurane via a ventilator (15-25 breaths/min; tidal volume […]) for the remainder of the experiment.

[1] = tested on: anesthetized acute spinal cord injured (aSCI) rat; assay: Colorectal (bowel) pressure manometry in anesthetized aSCI rats; assay type: in vivo; settings: doses >10 μg/kg SC
Method: (§1) Methods: Studies were conducted in acutely spinal transected rats under isovolumetric bladder pressure recording conditions. Acute spinal cord injury (aSCI) is an in vivo model of isolated bladder smooth muscle contraction without reinforcement from micturition reflexes (i.e., myogenic, not neurogenic, contraction). Thus, it can be viewed as a model of severe bladder underactivity.
Animal preparation: In vivo studies were performed in anesthetized, acutely spinalized (T8-10 level) rats. Rats were anesthetized with urethane (1.2-1.4 g/kg subcutaneous injection). Surgical procedures were then performed with the addition of isoflurane anesthesia (0.05-1.5% in 02) as needed. […]
Bowel Contractility: Colorectal pressure manometry was performed via a latex balloon catheter (length 3-5 cm) inserted (˜4 cm) into the distal rectal/colon region. […] This allowed drug induced changes in colorectal pressure to be monitored. Parameters measured include peak colorectal pressure response, duration of time above baseline activity (in the 1st 5 min after drug administration), area under the curve (measured during the 1st 5 min after drug administration) and the number of contractile events after vehicle and drug administration. […]
(§2) Data analysis: Data were examined qualitatively and quantitatively. The mean, standard deviation and standard error of the mean were calculated using MICROSOFT EXCEL.

[2] = molecular target: human NK1 Receptor (hNK1R) (Homo sapiens, UniProt P25103); assay: [3H]-septide radioligand competition binding to human recombinant NK1Rs (CHO-hNK1 membranes); settings: displacement of 5.0 nM [3H]-septide, CHO-hNK1 membranes; read-out: hNK1 binding Ki
Method: After removal of the supernatant the cell pellet was washed and collected by re-suspension in PBS and centrifugation.
Frozen pellets were thawed and homogenized in 10 volumes (w/v) of membrane preparation buffer (50 mM HEPES pH 7.4, 1 mM EDTA, 50 μg/mL bacitracin and protease inhibitors) using a Polytron Ultraturrax (twice for 15 s per cycle). […] Protein concentration was determined using BioRad Protein Assay (Milan, Italy) with a BSA standard curve.

[3] = molecular target: recombinant hNK1R expressed in CHO cells (Homo sapiens, UniProt P25103); assay: Intracellular calcium mobilization (FLIPR) in CHO-hNK1 cells; assay type: cell-based; settings: calcium mobilization, CHO-hNK1 cells; read-out: hNK1 EC50
Method: CHO-hNK1 and CHO-hNK2 cells were seeded into black walled clear-bottom 384-well plates) at a density of 10,000 and 15,000 cells per well in 50 μL culture media, respectively, and grown overnight at 37° C. in a humidified CO2-incubator. Cells were washed in washing buffer using the EMBLA 384 instrument, leaving 20 μL of buffer per well after the final aspiration. Cells were then incubated at 37° C. with the cytoplasmic Ca2+ indicator Fluo-4 AM (final concentration 1 μM) in assay buffer (20 mM HEPES, 145 mM NaCl, 5 mM KCl, 5.5 mM glucose, 1 mM MgCl2 and 2 mM CaCl2, pH 7.4, 0.05% Pluronic F-127 and 0.1% BSA) containing 2.5 mM probenecid for […] (cell loading). Cells were then washed 3 times in washing buffer (20 mM HEPES, 145 mM NaCl, 5 mM KCl, 5.5 mM glucose, 1 mM MgCl2 and 2 mM CaCl2, pH 7.4 and 2.5 mM probenecid) using the EMBLA 384 instrument, leaving 30 μL of buffer in each well after the last wash. Loaded cell plates were transferred to the FLIPR machine and calcium responses were monitored as described below. A dual read-out FLIPR protocol was used, allowing for characterization of both agonist and antagonist profiles. For quality control, in each compound plate the signal was monitored by evaluating the responses to the reference standards (NKA and Substance P).
Concentration response curves of compounds were run in duplicate on two different occasions from the same stock solutions. Test solutions were prepared from 10 mM stock solutions in DMSO and 1 μL of each solution was stamped into V-bottom assay plates containing 49 μL assay buffer. The final concentration of DMSO was 0.5% in each well.

[4] = Saline solubility of heptapeptides; assay type: physicochemical
Method: Heptapeptides A-K shown below in Table 1 (SEQ ID NOs: 1-11) were synthesized according to standard Fmoc-mediated solid-phase techniques and purified under typical C18 reverse-phase conditions.
Compounds D-K were considered to be insoluble in saline (<1 mg/mL).

[5] = tested on: anesthetized acute spinal cord injured (aSCI) rat; assay: Isovolumetric bladder pressure in anesthetized acute spinal cord injured (aSCI) rats; assay type: in vivo
Method: as §1
Animal preparation: In vivo studies were performed in anesthetized, acutely spinalized (T8-10 level) rats. Rats were anesthetized with urethane (1.2-1.4 g/kg subcutaneous injection). Surgical procedures were then performed with the addition of isoflurane anesthesia (0.05-1.5% in 02) as needed.
For aSCI, the skin and muscle on the dorsal side at the level of the lower thoracic vertebrae were incised and the spinal cord was carefully exposed by a laminectomy and transected at the T8-T10 spinal level. Gelfoam was placed at the incision site and the muscle and skin overlying the vertebrae were closed with wound clips. The spinal cord was cut at least 60 min before starting the experimental protocol. […]
as §2

Chain of recombinant hNK1R expressed in CHO cells (P25103 whole entry): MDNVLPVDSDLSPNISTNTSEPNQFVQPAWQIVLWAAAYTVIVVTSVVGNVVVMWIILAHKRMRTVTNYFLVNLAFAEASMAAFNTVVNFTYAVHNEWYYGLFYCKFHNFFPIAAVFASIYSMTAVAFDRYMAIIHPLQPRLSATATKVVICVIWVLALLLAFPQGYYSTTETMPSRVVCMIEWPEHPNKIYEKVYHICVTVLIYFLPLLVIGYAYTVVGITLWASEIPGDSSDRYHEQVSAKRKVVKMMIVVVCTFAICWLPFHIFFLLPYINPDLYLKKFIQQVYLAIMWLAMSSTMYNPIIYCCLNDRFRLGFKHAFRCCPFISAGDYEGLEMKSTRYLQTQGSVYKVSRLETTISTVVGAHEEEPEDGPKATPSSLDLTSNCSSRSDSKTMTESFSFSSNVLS
Chain of human NK1 Receptor (hNK1R) (P25103 whole entry): as above

CCCC[C@H](NC(=O)[C@H](CC(C)C)N(C)C(=O)CNC(=O)[C@@H](NC(=O)[C@H](Cc1ccccc1)NC(=O)[C@H](CCCNC(=N)N)NC(=O)[C@@H](N)CC(=O)O)C(C)C)C(N)=O [Compound B, Asp-Arg-Phe-Val-Gly-(NMe-Leu)-Nle-NH2] (HELM PEPTIDE1{D.R.F.V.G.[meL].[Nle].[am]}$$$$V2.0; N-terminus assumed)
urine leakage / induction of voiding (anesthetized dog): leakage of urine from the bladder | bowel activity (bowel pressure AUC, first 5 min) [1]: measurable increases in bowel activity | Ki [2]: 331 nM | EC50 [3]: 5.84 nM | solubility [4]: > 20 mg/mL | onset of increase in bladder contraction pressure ([5]; SC, anesthetized aSCI rat): < 2 min | bladder activity (peak bladder pressure) ([5]; doses >10 μg/kg SC, aSCI rat): measurable increases in bladder activity
